In patent US20130150243A1, “METHOD OF CONTROLLING PEST” (SUMITOMO CHEMICAL COMPANY, LIMITED, priority 2011, published 2013):

Columns and labels:
Type in all cases: in vivo
[1] = test system: Aphis gossypii; test: Insecticidal activity (controlling value) on cotton grown from treated seeds; conditions: soil treated with flumioxazin 50 or 75 g/ha, six days after release of Aphis gossypii
Protocol: For evaluating the insecticidal activity, life or death of an insect at investigation is determined, and a controlling value is obtained by the following equation:
Controlling value(%)=100×(1−T/C)
C: Number of insects at observation of non-treated section T: Number of insects at observation of treated-section
(§1) Into a plastic cup having an internal diameter of 96 millimeters and a height of 44 millimeters are placed 25 microliters of a clothianidin suspension (suspension containing 600 g/L clothianidin, trade name: NipsIt INSIDE, manufactured by Valent USA) and 50 grains of cotton seeds. By shaking this plastic cup with a hand, the clothianidin suspension is attached to the cotton seeds.
Fifteen days after seeding with the cotton seeds, a cotton leaf piece on which 20 larvae and 20 adults of Aphis gossypii inhabited is placed in the pot, and the whole plant is covered with a nylon cloth.
(§2) Six days after release of Aphis gossypii, the insecticidal activity, herbicidal activity and phytotoxicity are determined, and high weed controlling activity (>80) and high Aphis gossypii control value (>70) are obtained, and the phytotoxicity on the cotton is “no damage”. […]

[2] = test system: cotton; test: Phytotoxicity on crop; parameters: key: when phytotoxicity is hardly perceived, it is represented by “no damage”; when slight phytotoxicity is perceived, it is represented by “slight”; when moderate phytotoxicity is perceived, it is represented by “moderate”; when severe phytotoxicity is perceived, it is represented by “severe”; conditions: soil treated with flumioxazin 50 or 75 g/ha 15 days before seeding
Text: For evaluation of phytotoxicity on a crop, when phytotoxicity is hardly perceived, it is represented by “no damage”, when slight phytotoxicity is perceived, it is represented by “slight”, when moderate phytotoxicity is perceived, it is represented by “moderate”, and when severe phytotoxicity is perceived, it is represented by “severe”. The “phytotoxicity” evaluated herein is a damage characteristic determined to be caused by the treated compound, and is clearly discriminated from a damage characteristic caused by a pest.
as §1
Into a pot made of a plastic having an internal diameter of 177 millimeters and a height of 140 millimeters is packed a soil in which each of about 500 milligrams of seeds of Conyza canadensis, Amaranthus palmeri and Chenopodium album are mixed. A liquid of a flumioxazin water dispersible granule (water dispersible granule containing 51% of flumioxazin, trade name: Valor SX, manufactured by Valent USA) diluted with water is uniformly sprayed on the soil surface of this pot with a sprayer, so that flumioxazin is applied in an amount of 50 or 75 g/ha. Fifteen days after spraying, the cotton seeds are seeded at 5 grains per pot.
Six days after release of Aphis gossypii, the insecticidal activity, herbicidal activity and phytotoxicity are determined, and high weed controlling activity (>80) and high Aphis gossypii control value (>70) are obtained, and the phytotoxicity on the cotton is “no damage”.
Into a plastic cup having an internal diameter of 96 millimeters and a height of 44 millimeters are placed 25 microliters of a thiamethoxam preparation (preparation containing 600 g/L thiamethoxam, trade name: Cruiser 5FS, manufactured by Syngenta) and 50 grains of cotton seeds. By shaking this plastic cup with a hand, the thiamethoxam preparation is attached to the cotton seeds.

[3] = test system: Conyza canadensis, Amaranthus palmeri and Chenopodium album; test: Herbicidal activity in pot test, soil surface treated before seeding with treated cotton seeds; conditions: assessed 21 days after seeding
Text: Evaluation of herbicidal activity is classified into 0 to 100, letting no or little difference when the state of germination or growth of a test weed at investigation is compared with that of non-treatment to be “0”, and letting complete withering of a test weed or complete inhibition of germination or growth to be “100”.
as §1
Into a pot made of a plastic having an internal diameter of 177 millimeters and a height of 140 millimeters is packed a soil in which each of about 500 milligrams of seeds of Conyza canadensis, Amaranthus palmeri and Chenopodium album are mixed. […]
as §2

[4] = Example 2: thiamethoxam-treated cotton seeds
[5] = Example 1: clothianidin-treated cotton seeds

Structure (SMILES) | Aphis gossypii control value ([1]; Example 2: thiamethoxam preparation (Cruiser 5FS, 600 g/L) 25 microliters per 50 cotton seeds) | phytotoxicity on the cotton [2, 4] | weed controlling activity (herbicidal activity, scale 0 to 100) ([3]; Example 1: flumioxazin (Valor SX) 50 or 75 g/ha on soil surface 15 days before seeding, cotton seeds treated with clothianidin) | weed controlling activity (herbicidal activity, scale 0 to 100) ([3]; Example 2: flumioxazin (Valor SX) 50 or 75 g/ha on soil surface 15 days before seeding, cotton seeds treated with thiamethoxam) | phytotoxicity on the cotton [2, 5] | Aphis gossypii control value ([1]; Example 1: clothianidin suspension (NipsIt INSIDE, 600 g/L) 25 microliters per 50 cotton seeds)
CN1COCN(Cc2cnc(Cl)s2)/C1=N\[N+](=O)[O-] [thiamethoxam] | > 70% | no damage |  |  |  | 
C#CCN1C(=O)COc2cc(F)c(N3C(=O)C4=C(CCCC4)C3=O)cc21 [flumioxazin] |  | no damage | > 80 | > 80 | no damage | 
CN/C(=N\[N+](=O)[O-])NCc1cnc(Cl)s1 [clothianidin] |  |  |  |  | no damage | > 70%
